Assays:
[1] = tested on: cells of pigmented villonodular synovitis (PVNS); experiment: Fat cell differentiation of PVNS cells (HCS LipidTOX Green); format: cell-based, human; conditions: zaltoprofen 400 μM, compared with control
Experimental: It has been reported that PPARγ is a transcription factor indispensable for fat cell differentiation. Therefore, the GCTB cultured cells of the aforementioned case 1 were cultured on chamber cover slide glass, and when they reached confluent, zaltoprofen was added to the cells at various concentrations (10, 50, and 100 μM). From 24 hours thereafter, the cells were cultured in a fat cell differentiation-inducing medium (STREMPRO Adipogenesis Differentiation Kit, Invitrogen) for 7 to 14 days, and differentiation into fat cells was analyzed with HCS Lipid TOX Green Neutral Lipid Stain (Invitrogen) (FIGS. 8 and 9).
It has been reported that PPARγ is a transcription factor indispensable for fat cell differentiation. Therefore, in the same manner as that of Example 3, zaltoprofen was added at a concentration of 400 μM to the cells of giant cell tumor of tendon sheath (GCTT) or cells of pigmented villonodular synovitis (PVNS), and differentiation into fat cells was analyzed (FIGS. 30 and 31). As a result, it was successfully confirmed that the positive images obtained with HCS LipidTOX Green increased in the zaltoprofen-added cells compared with the control.

[2] = tested on: SW1353 cells; experiment: Proliferation of SW1353 cells cultured beforehand with or without GW9662; format: cell-based, human
Experimental: Cells of the human chondrosarcoma cell line, SW1353, were cultured in the same manner as that of Example 1 until they became sub-confluent, then, GW9662, which is an irreversible antagonist of PPARγ, was added to the cells at a final concentration of 1 μM, and the cells were cultured for 60 minutes. Then, zaltoprofen was added to the cells at various concentrations of 100, 200, 300, and 400 μM, color development was performed with Cell. Counting Kit-8 (CCK-8, Dojindo) 72 hours thereafter, absorbance was measured at 450 nm further 3 hours thereafter, and the result was compared with the absorbance observed with adding only DMSO not dissolving GW9662 (FIG. 68).

[3] = tested on: SW1353 cells; experiment: Proliferation of SW1353 cells cultured beforehand with PPARγ siRNA or control siRNA; format: cell-based, human
[4] = tested on: cultured cells of human pigmented villonodular synovitis (PVNS); experiment: Tunel assay and caspase 3 staining of PVNS cultured cells; format: cell-based; conditions: zaltoprofen 400 μM or troglitazone 200 μM, compared with control
Experimental: Further, the aforementioned GCTB cultured cells of the case 1 mentioned above were cultured on chamber cover slide glass, and zaltoprofen was added at different concentrations (100, and 200 μM) 24 hours afterward. Then, 8 hours and 24 hours afterward, the cells were fixed with 4% paraformaldehyde, staining with caspase 3 and Tunel assay were performed, and presence or absence of apoptosis was analyzed. In the Tunel assay, fragmented DNAs produced in the process of apoptosis were detected by the TdT-mediated dUTP nick end labeling method (TUNEL). Observation was performed with a fluorescence microscope (BZ-9000) of Keyence, and positive images for each concentration were quantitatively observed (FIGS. 2 to 5).
Further, in the same manner as that of Example 1, the cultured cells of human giant cell tumor of tendon sheath (GCTT) and the cultured cells of human pigmented villonodular synovitis (PVNS) were subjected to staining with caspase 3 and Tunel assay, and presence or absence of apoptosis was analyzed (FIGS. 18 to 25).

[5] = tested on: human PVNS cells; experiment: Proliferation of human PVNS cells cultured beforehand with PPARγ siRNA or control siRNA; format: cell-based; conditions: PPARγ siRNA 100 nM 48 hours, 100 μM rosiglitazone or 400 μM zaltoprofen
[6] = tested on: giant cell tumor of bone; experiment: Curative effect of zaltoprofen (Soleton Tablet) on patients with giant cell tumor of bone; format: in vivo, human
Experimental: Soleton Tablet 80 (generic name: zaltoprofen, 80 mg, Nippon Chemiphar) was administered to a patient with giant cell tumor of bone (GCTB), patient with giant cell tumor of tendon sheath (GCTT), or patient with pigmented villonodular synovitis (PVNS) at a dose of 3 tablets per day (one tablet was administered in the morning, at noon, and in the evening), and the tumor size was evaluated by MRI every several months.
Soleton Tablet 80 (generic name: zaltoprofen, 80 mg, Nippon Chemiphar) was administered to patients with giant cell tumor of bone at a dose of 3 tablets per day (one tablet was administered in the morning, at noon, and in the evening). Four weeks after the start of the administration, the tumor size was evaluated by imaging based on simple Roentgen contrast method, X-ray CT, and MRI (nuclear magnetic resonance imaging). Then, the tumors were excised from patients for whom surgical operation was possible, administration of zaltoprofen was continued at a dose of 240 mg per day (one 80 mg tablet was administered at the time of breakfast, lunch, and supper), and the tumor size was evaluated by imaging based on simple Roentgen contrast method, X-ray CT, and MRI (nuclear magnetic resonance imaging) every 16 weeks. Also for patients for whom surgical operation was difficult, administration of zaltoprofen was continued at a dose of 240 mg per day (one 80 mg tablet was administered at the time of breakfast, lunch, and supper), and the tumor size was evaluated by imaging based on simple Roentgen contrast method, X-ray CT, and MRI (nuclear magnetic resonance imaging) every 8 weeks.

[7] = tested on: PPARγ expression in H-EMC-SS cells; experiment: PPARγ immunostaining of chondrosarcoma cell line H-EMC-SS; format: cell-based, human; conditions: zaltoprofen 200 μM, troglitazone 100 μM or pioglitazone 200 μM
[8] = tested on: cultured cells of pigmented villonodular synovitis (PVNS); experiment: Suppression of cell proliferation of PVNS cultured cells (CCK-8); format: cell-based, human; conditions: PVNS cells; drug at various concentrations; CCK-8 24 hours after addition
[9] = among the 13 cases of GCTB, zaltoprofen 240 mg per day

SMILES: CC(C(=O)O)c1ccc2c(c1)CC(=O)c1ccccc1S2 (stereo not shown) [zaltoprofen]
- positive images obtained with HCS LipidTOX Green (differentiation into fat cells) [1]: increased
- cell proliferation-suppressing action after preincubation with GW9662 ([2]; SW1353, GW9662 1 μM, 60 minutes beforehand): markedly reduced by GW9662
- suppression of proliferation of SW1353 cells ([2]; zaltoprofen 100, 200, 300, 400 μM, 72 hours): suppressed by zaltoprofen in a concentration-dependent manner
- suppression of proliferation of SW1353 cells ([3]; 400 μM zaltoprofen, 24 hours): about 38%
- cell proliferation-suppressing action when expression of PPARγ is suppressed by siRNA ([3]; SW1353, PPARγ-siRNA 100 nM 48 hours, 400 μM zaltoprofen or 100 μM rosiglitazone): substantially eliminated
- Tunel-positive ratio [4]: increased
- caspase 3-positive ratio [4]: increased
- cell proliferation-suppressing action with PPARγ siRNA [5]: substantially completely eliminated
- response evaluation ([6]; GCTB case a): PR (“partial response (PR)” means a state that the total of sizes of tumor has decreased by 30% or more)
- shrinkage of tumor size ([6]; GCTB case a (person, pelvis)): more than 70%
- recurrence after excision by surgical operation ([6]; GCTB case a, up to today): no recurrence has been observed
- diameter of the giant cell tumor of bone after taking zaltoprofen ([6]; GCTB case c, proximal part of left fibula, about nine weeks, 23.3 mm before): 21.0 mm
- diameter of the giant cell tumor of bone after taking zaltoprofen ([6]; GCTB case d, distal part of right tibia, about eight weeks, 21.7 mm before): 20.5 mm
- change of giant cell tumor of bone ([6]; GCTB case g): did not shrink, but it also did not grow
- KPS score after taking zaltoprofen ([6]; GCTB case g, score 80 before): 100
- growth of the giant cell tumor of bone ([6]; GCTB case j (Zometa and artery embolization used in combination)): about 6%
- KPS score after taking zaltoprofen ([6]; GCTB case j, score 50 before): 90
- growth of the giant cell tumor of bone ([6]; GCTB case k): about 10%
- KPS score after taking zaltoprofen ([6]; GCTB case k, score 80 before): 90
- increase of the size of the giant cell tumor of bone ([6]; GCTB case l (printed case 1; left knee part), took only about a half of the prescribed dose): 19.8%
- response evaluation ([6]; GCTB case m (printed case in; person, proximal part of right tibia, multiple metastases to the lung)): PD (“progressive disease (PD)” means a state that the total of sizes of tumor has increased by 20% or more, and increased by 5 mm or more in terms of absolute value, or a state that new lesion has appeared)
- KPS score after taking zaltoprofen ([6]; GCTB case m, score 90 before): 100
- number of cases with hardening of bones on X-ray CT images ([6]; GCTB cases a, b, d, g, i, and j): 6 cases
- KPS score after taking zaltoprofen ([6]; GCTB cases a, c, and d, score 80 before): 90
- change of giant cell tumors of bone ([6]; GCTB cases a, c, d, e, and f, no treatment except zaltoprofen): shrank
- new metastasis during the taking of zaltoprofen ([6]; GCTB patients): any new metastasis of giant cell tumor of bone was not observed
- recurrence during the taking of zaltoprofen after ablative operation ([6]; GCTB patients subjected to ablative operation): no recurrence of giant cell tumor of bone could be confirmed
- number of cases diagnosed partial response (PR) [6, 9]: one
- number of cases diagnosed progressive disease (PD) [6, 9]: one
- cases in which the KPS score worsened ([6]; cases of giant cell tumor of bone who took zaltoprofen): no case in which the KPS score worsened
- MRI finding indicated by arrows ([6]; recurrence of GCTB in the pelvic part (case a), after two months (FIG. 35) and four months (FIG. 36)): tumor necrosis region
- tumor size by MRI ([6]; recurrence of GCTB in the pelvic part (person; case a), 3 tablets per day, after two months and four months): gradual shrinkage of the tumor
- expression of PPARγ (PPARγ-positive images) [7]: expression of PPARγ could be confirmed
- suppression of cell proliferation (absorbance at 450 nm) [8]: cell proliferation was suppressed

Source: patent publication US10653667B2, “Drug for preventing, treating or preventing metastasis of giant cell tumor that occurs in bone or soft parts, chondrosarcoma, or osteosarcoma, local injection for arterial embolization, and artificial bone” (NIPPON CHEMIPHAR CO., LTD, priority 2013, dated 2020)
